Experimental data published in ChEMBL document CHEMBL1201862, “PubChem BioAssay data set” (2004).
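Briefly, cells in 96-well plates were exposed to five compound concentrations for 48 h, and endpoints were estimated by linear interpolation. Here, GI50 denotes the concentration required for 50% inhibition of growth.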 Activity calls are given as the source filed them. Rule as the data show it: active = GI50 up to about 1.1 µM and inactive = higher.

Tests used:
Test in all cases: growth of human tumour cells (NCI), 48 h
HCC 2998 = system: HCC 2998
LOX IMVI = system: LOX IMVI
LXFL 529 = system: LXFL 529
RXF 631 = system: RXF 631
DMS-114 = system: DMS-114
OVCAR-8 = system: OVCAR-8
HL-60 = system: HL-60
UACC-257 = system: UACC-257
MDA-MB-231 = system: MDA-MB-231
XF498 = system: XF498
SK-OV-3 = system: SK-OV-3
SW-620 = system: SW-620
MCF7 = system: MCF7
MDA-N = system: MDA-N
UO-31 = system: UO-31
M14 = system: M14
OVCAR-5 = system: OVCAR-5
HCT-15 = system: HCT-15
ACHN = system: ACHN
IGROV-1 = system: IGROV-1
786-0 = system: 786-0
Hs-578T = system: Hs-578T
SF-268 = system: SF-268
U-251 = system: U-251
EKVX = system: EKVX
TK-10 = system: TK-10
UACC-62 = system: UACC-62
DU-145 = system: DU-145
OVCAR-3 = system: OVCAR-3
CCRF-CEM = system: CCRF-CEM
DMS-273 = system: DMS-273
SN12C = system: SN12C
MOLT-4 = system: MOLT-4
BT-549 = system: BT-549
T47D = system: T47D
SNB-19 = system: SNB-19
SR = system: SR
RXF 393 = system: RXF 393
HOP-62 = system: HOP-62
PC-3 = system: PC-3
RPMI-8226 = system: RPMI-8226
NCI/ADR-RES = system: NCI/ADR-RES
KM-20L2 = system: KM-20L2
NCI-H522 = system: NCI-H522
DLD-1 = system: DLD-1
CAKI-1 = system: CAKI-1
NCI-H460 = system: NCI-H460
SK-MEL-5 = system: SK-MEL-5
KM12 = system: KM12
COLO 205 = system: COLO 205
MDA-MB-435 = system: MDA-MB-435
HOP-18 = system: HOP-18
SK-MEL-2 = system: SK-MEL-2
Malme-3M = system: Malme-3M
SF-295 = system: SF-295
A549 = system: A549
K562 = system: K562
OVCAR-4 = system: OVCAR-4
HOP-92 = system: HOP-92
NCI-H23 = system: NCI-H23
SNB-75 = system: SNB-75
NCI-H226 = system: NCI-H226
A498 = system: A498
M19-MEL = system: M19-MEL
SNB-78 = system: SNB-78
SF-539 = system: SF-539
SK-MEL-28 = system: SK-MEL-28
HT-29 = system: HT-29
HCT-116 = system: HCT-116

Measured: GI50

CO[C@@H]1[C@H](OC(=O)NC(=O)CCl)CC[C@]2(CO2)[C@H]1[C@@]1(C)O[C@@H]1CC=C(C)C [O-CHLOROACETYLCARBAMOYLFUMAGILLOL]
14.1 µM: HCT-15
active: CCRF-CEM 0.9 µM
inactive: HCC 2998 5.81 µM | LOX IMVI 5.05 µM | LXFL 529 1.78 µM | RXF 631 1.67 µM | DMS-114 7.03 µM | OVCAR-8 15.8 µM | HL-60 2.54 µM | UACC-257 11 µM | MDA-MB-231 15.9 µM | XF498 6.35 µM | SK-OV-3 15.3 µM | SW-620 9.53 µM | MCF7 12.4 µM | MDA-N 11.4 µM | UO-31 9.89 µM | M14 5.51 µM | OVCAR-5 17.3 µM | ACHN 14.1 µM | IGROV-1 12.2 µM | 786-0 12.6 µM | Hs-578T 19.9 µM | SF-268 13.6 µM | U-251 3.08 µM | EKVX 14.1 µM | TK-10 18.3 µM | UACC-62 12 µM | DU-145 12.2 µM | OVCAR-3 3.49 µM | DMS-273 7.11 µM | SN12C 13.7 µM | MOLT-4 6.56 µM | BT-549 14.6 µM | T47D 12.6 µM | SNB-19 12 µM | SR 5.64 µM | RXF 393 8.36 µM | HOP-62 12.9 µM | PC-3 10.7 µM | RPMI-8226 6.93 µM | NCI/ADR-RES 16 µM | KM-20L2 16.6 µM | NCI-H522 5.35 µM | DLD-1 8.83 µM | CAKI-1 11 µM | NCI-H460 2.04 µM | SK-MEL-5 8.83 µM | KM12 11.5 µM | COLO 205 14.2 µM | MDA-MB-435 11.7 µM | HOP-18 > 10 µM | SK-MEL-2 13.6 µM | Malme-3M 5.97 µM | SF-295 5.65 µM | A549 7.23 µM | K562 12.2 µM | OVCAR-4 14.4 µM | HOP-92 15.6 µM | NCI-H23 15.8 µM | SNB-75 7.96 µM | NCI-H226 19 µM | A498 17.2 µM | M19-MEL 6.49 µM | SNB-78 > 10 µM | SF-539 10.6 µM | SK-MEL-28 12.8 µM | HT-29 5.66 µM

CCOC(=O)Nc1nc2cc(Cn3cccc3)ccc2[nH]1
inactive: HCC 2998 2.47 µM | LOX IMVI 2.55 µM | LXFL 529 4.16 µM | RXF 631 > 22.3 µM | DMS-114 4.9 µM | OVCAR-8 2.39 µM | UACC-257 3.82 µM | MDA-MB-231 1.57 µM | XF498 3.5 µM | SK-OV-3 1.5 µM | MCF7 1.7 µM | UO-31 14.4 µM | M14 1.65 µM | OVCAR-5 16 µM | ACHN 5.78 µM | IGROV-1 1.85 µM | SF-268 8.73 µM | U-251 1.2 µM | EKVX 27.7 µM | TK-10 19.5 µM | DU-145 1.78 µM | OVCAR-3 1.13 µM | DMS-273 3.66 µM | SN12C 2.33 µM | BT-549 > 20.2 µM | SNB-19 1.83 µM | RXF 393 4.03 µM | HOP-62 1.36 µM | KM-20L2 3.25 µM | DLD-1 3.93 µM | COLO 205 1.84 µM | HOP-18 4.52 µM | SK-MEL-2 2.01 µM | A549 1.22 µM | OVCAR-4 16.2 µM | HOP-92 32.2 µM | NCI-H23 4.82 µM | NCI-H226 15.8 µM | A498 1.7 µM | M19-MEL 6.37 µM | SNB-78 8.99 µM | SK-MEL-28 4.89 µM
0.986 µM: HCT-15
active: HL-60 0.27 µM | SW-620 0.564 µM | MDA-N 0.157 µM | 786-0 1.09 µM | Hs-578T 0.857 µM | UACC-62 0.828 µM | CCRF-CEM 0.581 µM | MOLT-4 0.64 µM | SR 0.735 µM | PC-3 0.399 µM | RPMI-8226 0.925 µM | NCI/ADR-RES 0.387 µM | NCI-H522 0.533 µM | CAKI-1 0.873 µM | NCI-H460 0.802 µM | SK-MEL-5 0.51 µM | KM12 0.853 µM | MDA-MB-435 0.123 µM | Malme-3M 1.09 µM | SF-295 0.807 µM | K562 0.359 µM | HCT-116 1.02 µM | SNB-75 0.356 µM | SF-539 0.865 µM | HT-29 0.65 µM
